Test results taken from patent US20240002445A1, “TYROSYL-LOCK PEPTIDES” (The United States of America,as represented by the …, priority 2020, published 2024).
“Also recorded” adds a separate entry of the source. One block for each molecule: values may come before it. Bridge positions count the residues as written; N and C are the ends. Square brackets hold non-standard residues; d marks the D form. Ends that are not written are not given here. Peptide text beside a SMILES is read from it. pGlu = O=C1CC[C@@H](C(=O)O)N1

Columns and labels:
FL-TDP1 = target: T1, FL-TDP1 (Homo sapiens, UniProt Q9NUW8); test: FL-TDP1 FRET assay without TCEP (recifin A and analogues); type: biochemical; details: for TDP1 inhibitory activity (FRET assay): TCEP omitted; for IC50: IC50 μM (FL-TDP1 inhibitory activity), 1 nM FL-TDP1, 0.25 μM substrate, T=15 min, 1XPBS pH 7.4, 80 mM KCl, -TCEP, high-test concentration 20 μM
T1 construct: either full-length TDP1 or Δ1-147TDP1 was diluted to 1×
T1 sequence (Q9NUW8 whole entry): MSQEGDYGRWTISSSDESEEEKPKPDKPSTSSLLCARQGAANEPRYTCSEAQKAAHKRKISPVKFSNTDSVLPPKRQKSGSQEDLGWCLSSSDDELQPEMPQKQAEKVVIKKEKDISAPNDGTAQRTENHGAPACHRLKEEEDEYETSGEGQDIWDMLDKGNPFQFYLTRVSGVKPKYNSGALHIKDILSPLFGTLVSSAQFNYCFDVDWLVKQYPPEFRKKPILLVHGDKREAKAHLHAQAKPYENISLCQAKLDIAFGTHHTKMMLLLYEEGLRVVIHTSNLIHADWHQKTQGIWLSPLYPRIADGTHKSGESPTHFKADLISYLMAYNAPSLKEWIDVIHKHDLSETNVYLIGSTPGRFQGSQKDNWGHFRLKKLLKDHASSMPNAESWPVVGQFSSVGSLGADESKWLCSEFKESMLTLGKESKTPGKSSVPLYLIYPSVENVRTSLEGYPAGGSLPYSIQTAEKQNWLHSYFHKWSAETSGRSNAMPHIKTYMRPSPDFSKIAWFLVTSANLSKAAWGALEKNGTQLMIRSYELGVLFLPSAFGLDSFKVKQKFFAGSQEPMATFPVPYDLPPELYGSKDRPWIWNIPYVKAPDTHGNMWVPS
Procedure: For these FRET assays, TCEP was omitted from the reaction buffer. Peptides were evaluated for FL-TDP1 inhibitory activity using an 8-pt, 10^0.5 dilution series at a high-test concentration of 20 μM. RXN conditions: 1 nM FL-TDP1, 0.25 μM substrate, T=15 min.; rxn buffer (1XPBS pH 7.4, 80 mM KCl) (-TCEP). See FIGS. 21A and 21B and FIG. 22.

Δ147TDP1 = target: T2, Δ147TDP1 (Homo sapiens, UniProt Q9NUW8); test: FRET-based TDP1 enzymatic activity inhibition assay, N-terminally truncated TDP1; type: biochemical
T2 construct: a truncated catalytic domain of TDP1 lacking the N-terminal regulatory domain (Δ1-147)
T2 sequence (Q9NUW8 148-608, stated change not applied): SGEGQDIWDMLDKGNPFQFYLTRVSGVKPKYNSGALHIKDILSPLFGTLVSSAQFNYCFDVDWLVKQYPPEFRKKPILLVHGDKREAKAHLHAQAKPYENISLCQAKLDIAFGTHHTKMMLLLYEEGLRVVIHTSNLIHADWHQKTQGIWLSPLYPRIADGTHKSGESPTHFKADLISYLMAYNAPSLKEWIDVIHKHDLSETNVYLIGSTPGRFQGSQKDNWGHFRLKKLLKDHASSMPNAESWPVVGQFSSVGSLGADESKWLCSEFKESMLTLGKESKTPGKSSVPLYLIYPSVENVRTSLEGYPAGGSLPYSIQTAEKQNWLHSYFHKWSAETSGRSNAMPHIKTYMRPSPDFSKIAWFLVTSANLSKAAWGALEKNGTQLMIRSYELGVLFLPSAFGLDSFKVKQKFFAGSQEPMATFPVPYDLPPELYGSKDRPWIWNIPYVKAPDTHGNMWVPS
Procedure: (§1) FRET-based TDP1 enzymatic activity inhibition assays were carried out as previously described (Bermingham, et al., SLAS Discov., 2472555217717200 (2017)). Briefly, for Michaelis-Menten analysis, an eight-point FRET substrate concentration response was used (from 0.01-3 μM substrate) in the presence of 0, 0.2, 0.5, 1, and 2 μM recifin A. Quadruplicate reactions were setup in which a 1.25× concentration of either full-length TDP1 or Δ1-147TDP1 was diluted to 1× by the addition of a […] solution of substrate and recifin A to reach a final concentration of 0.5 nM TDP1 (full length or truncated) and the indicated substrate and recifin A concentration in 1× Phosphate Buffered Saline (PBS) pH 7.4, 80 mM potassium chloride, 1 mM TCEP, referred to as “1× TDP1 buffer.” After dilution these reactions were transferred to a black small volume 384-well plate (Greiner Bio-One, Monroe, NC). Fluorescence measurements (excitation: 520 nm, emission: 550 nm) were taken at 30 sec intervals for 1 h using a i3x SpectraMax plate reader (Molecular Devices, Sunnyvale, CA). Reaction progression curves for each condition were examined for linearity over the time course and the reaction rate for each condition was determined by linear regression using GraphPad Prism software (version 8.3.1, San Diego, CA). Reaction rates were replotted in terms of substrate concentration, and kinetic parameters for each recifin A treatment concentration were calculated by non-linear regression (GraphPad Prism) according to the following equation: […]
(§2) For IC50 determinations, a 12-point concentration response curve was prepared over a recifin A concentration range of 0-15 μM. This was accomplished by diluting a 5X stock solution of recifin A and TDP1 FRET substrate into a stock solution of 1.25× TDP1 buffer containing 0.625 nM full-length TDP1 or Δ147TDP1, bringing the final concentration to 1× TDP1 buffer, 0.5 nM enzyme (or a no enzyme control), 1 μM FRET substrate, and 0-15 μM recifin A. Reactions were setup in triplicate using the same plates and plate reader described above for the kinetic measurements. Reaction wells were read at 0 (T0) and 15 (T15) min after initiation. The T15 data was background corrected by subtracting T0 fluorescence measurements. Corrected data was normalized to a control with no enzyme present (0% activity) and a vehicle control (100% activity). Recifin A concentrations were converted to logio-values and normalized data were fitted to the following equation by nonlinear regression (least squares fit with a variable slope) and an IC50 value was calculated using GraphPad Prism software: […]

[1] = target: T3, human TDP1 complemented DT40 knockout whole cell extracts (hTDP1 WCE) (Homo sapiens, UniProt Q9NUW8); test: TDP1 inhibition assay with radiolabeled oligonucleotide in whole cell extract; type: biochemical; details: 2 μg/mL hTDP1 WCE from TDP1-/- DT40 cells complemented with human TDP1
T3 construct: expressed in transfected cells; host or cells: TDP1-/- DT40 (chicken B-lymphocyte) cells complemented with human TDP1; whole cell extract
T3 sequence (Q9NUW8 whole entry): as the sequence (Q9NUW8 whole entry) above
Procedure: (§3) The reactions were carried out in a final volume of 10 μL in 1×LMP 1 reaction buffer (50 mM Tris-HCl, pH 7.5, 80 mM KCl, 2 mM EDTA, 1 mM DTT, 40 μg/mL BSA, 0.01% TWEEN 20) at room temperature for 15 minutes and terminated by adding 10 μ−L of 2×stop buffer (99.5% formamide, 10 mM EDTA, 0.01% methylene blue, 0.01% bromophenol blue).

TDP1 = TDP1 (Homo sapiens, UniProt Q9NUW8); test: High-throughput biochemical assay for inhibition of TDP1 enzymatic activity (bioassay-guided fractionation); details: comparison among peptide constituents of fractions A-D of Axinella sp. aqueous extract
TDP1, sequence (Q9NUW8 whole entry): as above
Procedure: The sponge Axinella sp., (Voucher #ID 0CDN7410, NSC #C020686) was harvested at a depth of 40 m at the Thunderbolt reef, south-southwest of Cape Recife Nature Reserve, Port Elizabeth, South Africa. A voucher specimen for this collection is maintained at the Smithsonian Institution (Suitland, MD). Aqueous extracts of Axinella sp. were provided by the Natural Products Branch of the National Cancer Institute and were prepared as previously reported (McCloud, Molecules, 15(7): 4526-63 (2010)). The dried extract was reconstituted in water at a concentration of 10 mg/mL and then subjected to vacuum-assisted chromatography using Bakerbond C4 wide-pore media (Mallinckrodt Baker, Inc., Phillipsburg, NJ). Compounds were eluted using a stepwise methanol gradient of five column volumes (CV) each of 100% water, 40% methanol, 60% methanol and 100% methanol, and the resulting fractions were evaporated under vacuum and then lyophilized to dryness. A high-throughput biochemical assay for inhibition of TDP1 enzymatic activity was utilized to track fraction activity (Bermingham, et al., SLAS Discov., 2472555217717200 (2017)). […]

carboxypeptidase Y = carboxypeptidase Y (Saccharomyces cerevisiae, UniProt P00729); details: native form, 1:18 enzyme to target protein by mass, 20 minutes at room temperature
carboxypeptidase Y, sequence (P00729 112-532, species assumed): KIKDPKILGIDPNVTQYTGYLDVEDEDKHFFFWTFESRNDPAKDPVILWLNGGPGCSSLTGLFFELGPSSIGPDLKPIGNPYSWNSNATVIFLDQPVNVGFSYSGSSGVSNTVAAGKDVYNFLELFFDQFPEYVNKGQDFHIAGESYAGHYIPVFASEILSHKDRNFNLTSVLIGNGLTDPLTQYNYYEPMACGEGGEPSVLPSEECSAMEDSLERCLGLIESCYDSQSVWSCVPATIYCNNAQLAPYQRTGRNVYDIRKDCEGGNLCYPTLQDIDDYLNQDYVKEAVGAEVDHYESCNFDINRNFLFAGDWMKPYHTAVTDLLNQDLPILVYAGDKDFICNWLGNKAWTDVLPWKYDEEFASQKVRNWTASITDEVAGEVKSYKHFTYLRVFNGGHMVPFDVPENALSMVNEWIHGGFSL

chymotrypsin = chymotrypsin (Bos taurus, UniProt P00766); details: native form, 1:20 enzyme to target protein by mass, overnight at room temperature
trypsin = trypsin (Bos taurus, UniProt P00760); details: native form, 1:20 enzyme to target protein by mass, overnight at 37° C.
trypsin, sequence (P00760 24-246): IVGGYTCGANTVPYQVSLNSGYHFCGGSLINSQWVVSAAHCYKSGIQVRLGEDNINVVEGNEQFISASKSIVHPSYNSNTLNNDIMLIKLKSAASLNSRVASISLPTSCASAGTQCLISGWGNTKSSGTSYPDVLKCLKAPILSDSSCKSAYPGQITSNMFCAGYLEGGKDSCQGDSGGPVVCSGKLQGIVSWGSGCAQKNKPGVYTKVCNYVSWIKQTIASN

[2] = target: pyroglutamate aminopeptidase (Pyrococcus furiosus, UniProt O73944)
pyroglutamate aminopeptidase, sequence (O73944 whole entry): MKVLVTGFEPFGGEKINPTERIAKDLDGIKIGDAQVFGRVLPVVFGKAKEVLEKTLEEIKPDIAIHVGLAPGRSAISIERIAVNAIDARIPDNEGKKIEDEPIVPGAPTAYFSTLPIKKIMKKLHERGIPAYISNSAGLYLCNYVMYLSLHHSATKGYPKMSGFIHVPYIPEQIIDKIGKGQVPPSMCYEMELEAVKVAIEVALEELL

full-length TDP1 [3] = target: T4, full-length TDP1 (Homo sapiens, UniProt Q9NUW8); test: biochemical
T4 sequence (Q9NUW8 whole entry): as the sequence (Q9NUW8 whole entry) above
Procedure: as §3

full-length TDP1 [4] = target: T4, full-length TDP1; test: FRET-based TDP1 enzymatic activity inhibition assay, full-length TDP1 (1x TDP1 buffer with TCEP); type: biochemical; set-up: either full-length TDP1 or Δ1-147TDP1 was diluted to 1×; details: for effect on Vmax of full-length TDP1 / effect on Km of full-length TDP1: steady-state analysis; for effect on Km of full-length TDP1: sub-micromolar concentrations of recifin A
Procedure: as §1, §2

[5] = Stability of recifin A to handling, solvents and RP-HPLC
[6] = system: T5, recifin A (native, isolated from the marine sponge Axinella sp.)
T5 sequence: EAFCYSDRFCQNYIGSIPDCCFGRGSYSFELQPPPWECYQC

[7] = target: full-length recombinant human Tyrosyl-DNA phosphodiesterase 1 (TDP1) (human) (UniProt Q9NUW8); test: cell-based or functional assay
full-length recombinant human Tyrosyl-DNA phosphodiesterase 1 (TDP1) (human), sequence (Q9NUW8 whole entry, the tested form may be a part): as the sequence (Q9NUW8 whole entry) above

[8] = target: N-terminal truncated TDP1 (Δ147TDP1) (UniProt Q9NUW8); test: cell-based or functional assay
N-terminal truncated TDP1 (Δ147TDP1), sequence (Q9NUW8 148-608, stated change not applied): as the sequence (Q9NUW8 148-608, stated change not applied) above

[9] = full-length TDP1, Michaelis-Menten analysis, 0-2 μM recifin A

Molecule: CC[C@H](C)[C@@H]1NC(=O)[C@H](Cc2ccc(O)cc2)NC(=O)[C@H](CC(N)=O)NC(=O)[C@H](CCC(N)=O)NC(=O)[C@@H]2CSSC[C@@H]3NC(=O)[C@H](CCC(=O)O)NC(=O)[C@H](Cc4c[nH]c5ccccc45)NC(=O)[C@@H]4CCCN4C(=O)[C@@H]4CCCN4C(=O)[C@@H]4CCCN4C(=O)[C@H](CCC(N)=O)NC(=O)[C@H](CC(C)C)NC(=O)[C@H](CCC(=O)O)NC(=O)[C@H](Cc4ccccc4)NC(=O)[C@H](CO)NC(=O)[C@H](Cc4ccc(O)cc4)NC(=O)[C@H](CO)NC(=O)CNC(=O)[C@H](CCCNC(=N)N)NC(=O)CNC(=O)[C@H](Cc4ccccc4)NC(=O)[C@H](CSSC[C@@H](C(=O)O)NC(=O)[C@H](CCC(N)=O)NC(=O)[C@H](Cc4ccc(O)cc4)NC3=O)NC(=O)[C@H](CSSC[C@H](NC(=O)[C@H](Cc3ccccc3)NC(=O)[C@H](C)N)C(=O)N[C@@H](Cc3ccc(O)cc3)C(=O)N[C@@H](CO)C(=O)N[C@@H](CC(=O)O)C(=O)N[C@@H](CCCNC(=N)N)C(=O)N[C@@H](Cc3ccccc3)C(=O)N2)NC(=O)[C@H](CC(=O)O)NC(=O)[C@@H]2CCCN2C(=O)[C@H]([C@@H](C)CC)NC(=O)[C@H](CO)NC(=O)CNC1=O [Truncated, Recifin (3-42)] (H-AFCYSDRFCQNYIGSIPDCCFGRGSYSFELQPPPWECYQC-OH; disulfide 3-19, 9-37, 20-40)
TDP1 inhibitory activity (FRET assay) (FL-TDP1): no TDP1 inhibitory activity
IC50 (FL-TDP1): > 10 µM

Molecule: [pGlu]EAFCYSDRFCQNYIGSIPDCCFGRGSYSFELQPPPWECYQC-OH (disulfide 5-21, 11-39, 22-42) [Synthetic, Recifin]
TDP1 inhibitory activity (FRET assay) (FL-TDP1): have TDP1 inhibitory activity
IC50 (FL-TDP1): 0.5 µM

Molecule: [pGlu]EAFCYSDRFCQNYIGSIPDCCFGRGSYSFELQPPPWECYQC (disulfide 5-21, 11-39, 22-42) [recifin A]
effect on enzymatic activity of truncated TDP1 (Δ147TDP1) (Δ147TDP1; FRET assay, TDP1 lacking N-terminal regulatory domain (Δ1-147)): does not affect the enzymatic activity; also recorded: not affecting the activity
inhibition at 1.5 µM (Δ147TDP1; at the highest concentration (1500 nM), read-out: maximal inhibition of Δ147TDP1): ~20%
effect on Km of Δ147TDP1 (Δ147TDP1; Δ147TDP1 FRET assay): did not affect
effect on Vmax of Δ147TDP1 (Δ147TDP1; Δ147TDP1 FRET assay): did not affect
inhibition of TDP1 processing of the radiolabeled oligonucleotide in whole-cell extract [1]: retained the ability to inhibit
IC50 (FL-TDP1): 1.63 µM
TDP1 inhibitory activity of Axinella sp. peptides/fractions (TDP1): most active
digestion with carboxypeptidase Y (carboxypeptidase Y): resistant
digestion with chymotrypsin (chymotrypsin): resistant
digestion with trypsin (trypsin): resistant
digestion with pyroglutamate aminopeptidase ([2]; native form, 2 microgram peptide to 0.2 milliunits enzyme, PBS pH 7.4, 24 hour at 37 C): resistant
digestion with pyroglutamate aminopeptidase: N-terminal pyroglutamate residue ([2]; same conditions in phosphate buffer containing 10 mM DTT): fully removed
IC50 (full-length TDP1 [3]): 2.4 µM
IC50 (full-length TDP1 [4]): 0.19 µM
increase in Km for the substrate (full-length TDP1 [4]; [9]): approximately 6 fold
increase in observed Vmax (full-length TDP1 [4]; [9]): approximately 1.6 fold
effect on Vmax of full-length TDP1 (full-length TDP1 [4]): modest increase
effect on Km of full-length TDP1 (full-length TDP1 [4]): increased
effect on Km of full-length TDP1 (full-length TDP1 [4]; listed as Recifin A): in-creased
effect on Vmax of full-length TDP1 (full-length TDP1 [4]; listed as Recifin A): in-creased
activity after processing ([5]; DTP extract preparation, drying under nitrogen gas at room temperature, freezing at -20° C., -80° C. and on dry ice, lyophilization, freezing and thawing): still active
stability during RP-HPLC procedures ([5]; room temperature and 40° C., with and without 0.05% v/v TFA (pH approx. 2)): stable
stability in solvents and buffers ([5]; water, PBS pH 7.4, Tris HCl pH 8.0, methanol, acetonitrile, DMSO): stable

Molecule: full-length recombinant human Tyrosyl-DNA phosphodiesterase 1 (TDP1)
effect on the observed Vmax, FRET steady-state kinetics [6]: approximately 1.6-fold higher
recifin A-dependent increase in the Km for the substrate, FRET steady-state kinetics [6]: approximately 6-fold higher

IC50 µM, FL-TDP1 FRET inhibition assay without TCEP [7]: > 10 µM
Molecule: Recifin (3-42) (peptide)

maximal inhibition of enzymatic activity, FRET assay [8]: 20%
IC50 µM, FL-TDP1 FRET inhibition assay without TCEP [7]: 1.63 µM
IC50, inhibition of TDP1 cleavage of a 5'-radiolabeled oligonucleotide DNA substrate containing a 3'-phosphotyrosyl residue (gel assay) [7]: 2.4 µM
apparent IC50, FRET-based TDP1 enzymatic activity inhibition assay [7]: 0.19 µM
Molecule: recifin A (native, isolated from the marine sponge Axinella sp.) (peptide)

Molecule: N-terminal truncated TDP1 (Δ147TDP1)
Km and Vmax of the Δ147TDP1 FRET assay [6]: recifin A had overlapping 95% confidence intervals for both Km and Vmax with the untreated controls, indicating that recifin A does not affect the enzymatic activity of truncated TDP1

IC50 µM, FL-TDP1 FRET inhibition assay without TCEP [7]: 0.5 µM
Molecule: synthetic recifin A (peptide)

IC50 µM, FL-TDP1 FRET inhibition assay without TCEP [7]: 0.69 µM
Molecule: [Pro1] recifin (peptide)

IC50 µM, FL-TDP1 FRET inhibition assay without TCEP [7]: > 10 µM
Molecule: [Ala10] recifin (peptide)
